Results published in US10660318B2, “Non-mammalian RAS transgenic animal model” (Tosk, Inc., priority 2013, dated 2020).

Tested on: mutated kRAS/kRAS x MS1096 fly (human kRAS G12V expressed in the wing)
Assay: Screening for drugs that reverse the wing phenotype of the mutated kRAS/kRAS x MS1096 fly
Format: in vivo, Drosophila
Conditions: for rescue from the crumpled/kringled wing phenotype: 10 μM test article in fly food, embryos to adults, 25° C., 14 days, FIG. 8
Description: Male mutated kRAS/kRAS flies were bred overnight with female MS1096/GAL4 flies in a fly condo^2 with a grape agar plate floor. The resulting embryos were gently dislodged from the grape agar plate using a squirt bottle containing 0.7% NaCl, 0.03% Triton X-100 In distilled water. The embryos were counted and then dissolved in a solution containing 14.4% sucrose, 0.7% NaCl and 0.05% Triton to give a concentration of 15 embryos/10 μL of solution. ^2 Sullivan W, Ashburner M, Hawley, S R, Drosophila Protocols 2000, Cold Spring Harbor Laboratory Press, pp 541-551.
The test article, 1-benzyl-2-phenyl-1H-benzo[d]imidazole which is a deltarasin analog with activity againsy RAS signaling,^1 was dissolved in DMSO to give a concentration of 10 mM. The deltarasin analog inhibitor was synthesized at the Tosk facility. Four μL of this solution, 100 μL of the embryo solution (150 embryos), ½ teaspoon blue fly food (North Carolina, catalogue number 173216) and 4 ml of water were combined in a vial (VWR, catalogue number 89092-720) and capped (VWR, catalogue number 89168-886). Using the recipe provided above, the final concentration of test article in the mixture was 10 μM.
The vials were placed in a 25° C. incubator for 14 days after which they. were examined for the percentage of flies with crumpled/kringled wings. […] The goal for screening chemicals for anti-kRAS activity is to achieve in the kRAS mutant fly the rescue from the crumpled/kringled wing phenotype achieved with the deltarasin analog.

[1] = flies rescued by treatment with a test article, compared with control and kRAS mutant flies

Structure (SMILES): c1ccc(Cn2c(-c3ccccc3)nc3ccccc32)cc1 [test article, 1-benzyl-2-phenyl-1H-benzo[d]imidazole]
- rescue from the crumpled/kringled wing phenotype: significantly less crumpled/kringled although still non-functional
- rescue from the crumpled/kringled wing phenotype (listed as deltarasin analog): rescued
- typical appearance of wings: vein-free region (Rescued) (compared with the same regions in kRAS mutant flies): Vein-free region is considerably
- ability to take flight (Rescued) [1]: Unable to take flight
- typical appearance of wings: position relative to fly body in idle state (Rescued) [1]: Wings tend to be parallel to the fly
- typical appearance of wings: size and shape (Rescued) [1]: Medium, semi-flat and less crinkled
- typical appearance of wings: transparency (Rescued) [1]: Slightly translucent wings
- typical appearance of wings: wing veins (Rescued) [1]: Slightly aberrant wing “veins.”
